Measurements from patent US20100022553A1, “Therapeutic Combination Comprising an Aurora Kinase Inhibitor and Imatinib” (NERVIANO MEDICAL SCIENCES S.R.L., priority 2008, published 2010).

Legend:
[1] = system: Human myeloid leukemia K-562 cell line; settings: K562 s.c. in SCID mice, Imatinib 100 mg/kg per os, days 7-15; for Time to reach 1 g: Compound 1 15 mg/kg intraperitoneally twice a day; for T-C: delay of treated vs control tumors to reach 1 g, Compound 1 15 mg/kg i.p.
Procedure: SCID female mice, from Harlan (Italy), were maintained in cages with paper filter cover, food and bedding sterilized and water acidified.
For in vivo experiments 10^7 K562 cells were implanted subcutaneously in SCID mice.
Tumor growth and body weight were measured every 3 days. Tumor growth was assessed by caliper. […] This delay (T-C value) was defined as the difference of time (in days) required for the treatment group (T) and the control group(C) tumors to reach a predetermined size (1 g).
Toxicity was evaluated on the basis of body weight reduction.

[2] = target: T315I mutation of Abl (Bcr-Abl) (Homo sapiens, UniProt P00519, T315I); settings: cited from earlier work

Row | SMILES | Time to reach 1 g [1] [days] | T-C [1] [days] | activity against the T315I mutation [2]
1 | CO[C@@H](C(=O)N1Cc2[nH]nc(NC(=O)c3ccc(N4CCN(C)CC4)cc3)c2C1)c1ccccc1 [Compound 1, N-[5-(2-Methoxy-2-phenyl-acetyl)-1,4,5,6-tetrahydro-pyrrolo[3,4-c]pyrazol-3-yl]-4-(4-methyl-piperazin-1yl)-benzamide] | 27.3 | 11.5 | –
2 | Cc1ccc(NC(=O)c2ccc(CN3CC[C@H](N(C)C)C3)c(C(F)(F)F)c2)cc1Nc1nccc(-c2cncnc2)n1 [Inno-406] | – | – | inactive
3 | Cc1ccc(NC(=O)c2ccc(CN3CCN(C)CC3)cc2)cc1Nc1nccc(-c2cccnc2)n1 [Imatinib] | 25.1 | 9.3 | –
